Measurements as given in publication PMC6207684, “Structural reorganization of SHP2 by oncogenic mutations and implications for oncoprotein resistance to allosteric inhibition” (Nature Communications, 2018).
Where a chain is given by its changes, count along the chain named. Where a SMILES comes first, the peptide text is derived from it. [ ]: non-standard residue; d: D form. pY = N[C@@H](Cc1ccc(OP(=O)(O)O)cc1)C(=O)O; PEG8 = NCCOCCOCCOCCOCCOCCOCCOCCOCCC(=O)O

How the values were obtained:
Experiment in all cases: SHP2 phosphatase activity upon p-IRS-1 peptide stimulation (DiFMUP)
Assay type in all cases: biochemical
Conditions in all cases: 200 μM DiFMUP, read-out: pIRS-1 AC50
[1] = biological target: T1, SHP2^G60V (Homo sapiens, UniProt Q06124, G60V)
T1 construct: made in house
T1 sequence (Q06124 1-593 G60V): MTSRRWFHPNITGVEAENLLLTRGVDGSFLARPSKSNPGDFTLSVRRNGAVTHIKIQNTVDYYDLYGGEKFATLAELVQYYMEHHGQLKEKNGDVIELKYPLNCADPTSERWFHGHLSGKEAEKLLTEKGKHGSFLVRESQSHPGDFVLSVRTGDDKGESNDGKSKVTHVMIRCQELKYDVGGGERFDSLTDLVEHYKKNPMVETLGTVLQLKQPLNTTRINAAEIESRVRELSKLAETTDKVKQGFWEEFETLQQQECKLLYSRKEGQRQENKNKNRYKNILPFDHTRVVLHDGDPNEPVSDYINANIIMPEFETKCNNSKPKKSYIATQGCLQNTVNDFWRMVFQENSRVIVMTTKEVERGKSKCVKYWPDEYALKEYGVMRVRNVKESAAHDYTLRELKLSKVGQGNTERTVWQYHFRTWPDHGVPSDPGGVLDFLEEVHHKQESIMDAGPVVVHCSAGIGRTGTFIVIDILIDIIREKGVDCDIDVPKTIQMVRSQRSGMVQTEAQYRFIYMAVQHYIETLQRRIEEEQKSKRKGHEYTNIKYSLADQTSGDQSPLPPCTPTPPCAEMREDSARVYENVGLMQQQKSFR
Method: (§1) Wild-type and mutant SHP2 proteins were diluted to 0.1 nM and treated with either varying concentrations of diphosphorylated IRS-1 peptide (pY1172-Peg-PY1222, SLNY(p)IDLDLVK-dPEG8-LSTY(p)ASINFQK), or for maximal activation, 10 μM pY1172-Peg-PY1222. Phosphatase activity was measured through the dephosphorylation DiFMUP (200 μM, ex. 385, em. 450 nm) on a Spectramax M5 plate reader and converted to product (DiFMU)/time by preparing a standard curve of DiFMU/DiFMUP. Velocity data were fit to the following three-parameter dose–response curve (Eq. (2)) to extrapolate EC50 values:2 V=Basal+Max-Basal∕1+10^LogEC50-S Where V represents enzyme velocity, Basal is basal response, Max is maximal response, [S] is substrate concentration, and EC50 is the substrate concentration that yields response half way between basal and maximal.

[2] = biological target: T2, SHP2^F285S (Homo sapiens, UniProt Q06124, F285S)
T2 construct: made in house
T2 sequence (Q06124 1-593 F285S): T1 sequence (Q06124 1-593 G60V) with V60G, F285S
Method: as §1

[3] = biological target: T3, SHP2^S502P (Homo sapiens, UniProt Q06124, S502P)
T3 construct: made in house
T3 sequence (Q06124 1-593 S502P): T1 sequence (Q06124 1-593 G60V) with V60G, S502P
Method: as §1

[4] = biological target: T4, SHP2^WT (Homo sapiens, UniProt Q06124)
T4 construct: made in house
T4 sequence (Q06124 1-593): T1 sequence (Q06124 1-593 G60V) with V60G
Method: as §1

[5] = biological target: T5, SHP2^D61V (Homo sapiens, UniProt Q06124, D61V)
T5 construct: made in house
T5 sequence (Q06124 1-593 D61V): T1 sequence (Q06124 1-593 G60V) with V60G, D61V
Method: as §1

AC50 [1]: 9 ± 2 nM | AC50 [2]: 18 ± 2 nM | AC50 [3]: 5 ± 2 nM | AC50 [4]: 247 ± 18 nM | AC50 [5]: 4 ± 1 nM
SMILES: CC[C@H](C)[C@H](NC(=O)[C@H](CO)NC(=O)[C@H](C)NC(=O)[C@H](Cc1ccc(OP(=O)(O)O)cc1)NC(=O)[C@@H](NC(=O)[C@H](CO)NC(=O)[C@H](CC(C)C)NC(=O)CCOCCOCCOCCOCCOCCOCCOCCOCCNC(=O)[C@H](CCCCN)NC(=O)[C@@H](NC(=O)[C@H](CC(C)C)NC(=O)[C@H](CC(=O)O)NC(=O)[C@H](CC(C)C)NC(=O)[C@H](CC(=O)O)NC(=O)[C@@H](NC(=O)[C@H](Cc1ccc(OP(=O)(O)O)cc1)NC(=O)[C@H](CC(N)=O)NC(=O)[C@H](CC(C)C)NC(=O)[C@@H](N)CO)[C@@H](C)CC)C(C)C)[C@@H](C)O)C(=O)N[C@@H](CC(N)=O)C(=O)N[C@@H](Cc1ccccc1)C(=O)N[C@@H](CCC(N)=O)C(=O)N[C@@H](CCCCN)C(=O)O [pIRS-1, SLNY(p)IDLDLVK-dPEG8-LSTY(p)ASINFQK] (H-SLN[pY]IDLDLVK[PEG8]LST[pY]ASINFQK-OH)
